# Patent US11766430B2, “Methods of using a phenoxypropylamine compound to treat pain” (Minerva Neurosciences, Inc., priority 2018, dated 2023)
# Values joined by “and” are separate entries in the source; they are usually repeats but may differ in a detail not shown here. Equal entries are not always repeated.
# Tested on: carrageenan-induced mechanical hyperalgesia in rats
# Experiment: Carrageenan-induced mechanical hyperalgesia, paw pressure test, time course to 240 min (Example 2)
# Assay type: in vivo, male Sprague-Dawley rats
# Conditions: 3 mg/kg s.c.
# Method: In this model, inflammation is induced by intraplantar injection of carrageenan (2%) into the right hindpaw of the rat. Three hours later, reaction thresholds are measured using the paw pressure test. Pressure is gradually applied to both hind paws (inflamed and control) of the rat, and reaction thresholds are determined as the pressure (g) required to elicit paw withdrawal or vocalization. Morphine (3 mg/kg, s.c.) was used as a positive control.
# The experiments in this study used fifty (50) male Sprague-Dawley rats (SPF status, Janvier, France), each weighing 204-260 grams. The rats were housed in a temperature (20-24° C.) and relative humidity (45%-65%) controlled room and acclimated to an artificial day/night cycle of 12 hours light (6.30 a.m. to 6.30 p.m.)/12 hours darkness. Rats had free access to sterilized tap water and were fed ad libitum with pelleted complete diet (reference A04, S.A.F.E.). Rats were housed 4 per cage (cages Type E) and were acclimated for a period of at least 5 days before any testing. Each rat was identified by tail markings. Based on the SPF status of the animal facilities, there is no reason to expect that contaminants were present in the food, water or bedding, at levels capable of interfering with the results of the tests.
# Pain Test: Static mechanical hyperalgesia was assessed using the Paw Pressure test or Randall & Selitto test (Randall, L. O. and Selitto, J. J., A method for measurement of analgesic activity on inflamed tissue, Arch Int Pharmacodyn, 1957(111): 409-419). This test requires the application of an increasing pressure on the hind paws between a flat surface and a blunt pointer. This test is usually used with animals with one hind paw inflamed by an injection or injured by ligation, and one normal hind paw, to evaluate drugs for analgesic action. The apparatus exerts a steadily increasing force and reaction threshold is determined as the pressure (g) required to elicit paw withdrawal and/or vocalization. In the experiment, animals were gently handled by the experimenter and static mechanical hyperalgesia was assessed. Each reaction threshold measurement was done for both hind paws.
# Five (5) experimental groups of 10 rats each were used. Each group was first injected with of 100 μL of a 2% carrageenan suspension in the plantar aspect of the right hindpaw. Three hours after carrageenan injection, paw withdrawal threshold was measured using the paw pressure test (Baseline). The 5 groups were then administered the following: • Group 1: vehicle (0.5% HPMC), i.p., solution (negative control); • Group 2: MIN-117 (0.01 mg/kg, i.p.) in 0.5% HPMC, suspension; • Group 3: MIN-117 (0.1 mg/kg, i.p.) in 0.5% HPMC, suspension; • Group 4: MIN-117 (1 mg/kg, i.p.) in 0.5% HPMC, suspension; and • Group 5: morphine (3 mg/kg, s.c.) in 0.9% NaCl, solution (positive control).
# After administering vehicle, MIN-117, or morphine, the antihyperalgesic effect of the compounds was evaluated using the paw pressure test at 0 min. (T0), 30 min., 60 min., 120 min., and 240 min.
# Vehicle and MIN-117 were administered intraperitoneally at 10 mL/kg. Morphine was subcutaneously administered at 5 mL/kg. Dosing and testing were performed in a random order by a blinded experimenter except for the morphine-treated group. Doses were expressed in terms of free active substance. Rats were sacrificed at the end of the experiment by CO2 inhalation pending subsequent removal by a certified company.
# Results were assessed as: the paw withdrawal threshold (mean±s.e.m.) in grams of contact pressure for each group, calculated from individual paw withdrawal thresholds; the percentage of variation of the paw withdrawal threshold calculated from the mean value of the vehicle-treated group; and/or the percentage of activity. To determine a statistical effect of the test substance and the reference substance, data were analyzed by a non-parametrical test. The significance level was p<0.05.
# [1] = 120 min, listed as Morphine HCl
# [2] = 240 min, listed as Morphine HCl
# [3] = Baseline, listed as Morphine HCl
# [4] = T0 (baseline before dosing), listed as Morphine HCl
# [5] = T0 + 30 min, listed as Morphine HCl
compound,measurement,setting,value
"CN1CC[C@]23c4c5ccc(O)c4O[C@H]2[C@@H](O)C=C[C@H]3[C@H]1C5 [Morphine, reference compound]",Time of maximum effect on injured paw withdrawal threshold after treatment,,30 min
same,"Nociceptive threshold, control paw, individual rats","30 min, listed as Morphine HCl",680 g (9×) and 520 g
same,"Nociceptive threshold, injured paw, individual rats","30 min, listed as Morphine HCl",600 g and 620 g (2×) and 560 g and 640 g and 680 g (3×) and 440 g and 400 g
same,"Nociceptive threshold, control paw, individual rats","60 min, listed as Morphine HCl",580 g and 680 g (8×) and 520 g
same,"Nociceptive threshold, injured paw, individual rats","60 min, listed as Morphine HCl",440 g and 600 g (3×) and 460 g and 620 g (2×) and 680 g and 480 g and 380 g
same,"Nociceptive threshold, control paw, individual rats",[1],480 g and 320 g and 440 g (3×) and 500 g and 380 g and 520 g and 460 g and 360 g
same,"Nociceptive threshold, injured paw, individual rats",[1],280 g (3×) and 260 g and 400 g and 320 g (2×) and 440 g and 220 g and 200 g
same,"Nociceptive threshold, control paw, individual rats",[2],320 g (4×) and 360 g (4×) and 400 g and 420 g
same,"Nociceptive threshold, injured paw, individual rats",[2],160 g (3×) and 180 g (3×) and 200 g (2×) and 240 g and 140 g
same,"Nociceptive threshold, control paw, individual rats",[3],320 g (2×) and 440 g and 420 g (3×) and 360 g (2×) and 460 g and 380 g
same,"Nociceptive threshold, injured paw, individual rats",[3],160 g and 200 g (5×) and 220 g and 180 g (3×)
same,"% activity, injured paw",T0 (baseline before dosing),2%
same,"% variation vs control paw, injured paw",T0 (baseline before dosing),−51%
same,"% variation vs vehicle-treated group, injured paw",T0 (baseline before dosing),5%
same,"Nociceptive threshold, control paw (mean ± s.e.m.)",T0 (baseline before dosing),390.0 ± 15.6 g
same,"Nociceptive threshold, injured paw (mean ± s.e.m.)",T0 (baseline before dosing),192 ± 5.3 g
same,"Nociceptive threshold, control paw (mean ± s.e.m.)",[4],390. g
same,"Nociceptive threshold, injured paw (mean ± s.e.m.)",[4],192 g
same,"% activity, injured paw",T0 + 30 min,230%
same,"% variation vs control paw, injured paw",T0 + 30 min,−11%
same,"% variation vs pre-drug threshold, injured paw",T0 + 30 min,208%
same,"Nociceptive threshold, control paw (mean ± s.e.m.)",T0 + 30 min,664 g
same,"Nociceptive threshold, injured paw (mean ± s.e.m.)",T0 + 30 min,592 ± 31.3 g
same,"% variation vs vehicle-treated group, injured paw",[5],233%
same,"Nociceptive threshold, injured paw (mean ± s.e.m.)",[5],592 g
same,"% activity, injured paw",T0 + 60 min,214%
same,"% variation vs control paw, injured paw",T0 + 60 min,−16%
same,"% variation vs pre-drug threshold, injured paw",T0 + 60 min,185%
same,"% variation vs vehicle-treated group, injured paw",T0 + 60 min,191%
same,"Nociceptive threshold, control paw (mean ± s.e.m.)",T0 + 60 min,654 g
same,"Nociceptive threshold, injured paw (mean ± s.e.m.)",T0 + 60 min,548 ± 31.3 g
same,"Nociceptive threshold, injured paw (mean ± s.e.m.)","T0 + 60 min, listed as Morphine HCl",548 g
same,"% activity, injured paw",T0 + 120 min,72%
same,"% variation vs control paw, injured paw",T0 + 120 min,−31%
same,"% variation vs pre-drug threshold, injured paw",T0 + 120 min,56%
same,"% variation vs vehicle-treated group, injured paw",T0 + 120 min,61%
same,"Nociceptive threshold, control paw (mean ± s.e.m.)",T0 + 120 min,434 g
same,"Nociceptive threshold, injured paw (mean ± s.e.m.)",T0 + 120 min,300 ± 23.5 g
same,"Nociceptive threshold, injured paw (mean ± s.e.m.)","T0 + 120 min, listed as Morphine HCl",300 g
same,"% activity, injured paw",T0 + 240 min,−4%
same,"% variation vs control paw, injured paw",T0 + 240 min,−49%
same,"% variation vs pre-drug threshold, injured paw",T0 + 240 min,−6%
same,"% variation vs vehicle-treated group, injured paw",T0 + 240 min,−3%
same,"Nociceptive threshold, control paw (mean ± s.e.m.)",T0 + 240 min,354 g
same,"Nociceptive threshold, injured paw (mean ± s.e.m.)",T0 + 240 min,180 ± 8.9 g
same,"Nociceptive threshold, injured paw (mean ± s.e.m.)","T0 + 240 min, listed as Morphine HCl",180 g
same,Effect on injured paw withdrawal threshold vs vehicle-treated group (in words),from 30 min. to 120 min. after administration,marked and significant increase
